Laboratory results from the NIST ThermoML archive (doi:10.1016/j.jct.2017.02.022).

Legend:
[1] = xn = mol fraction of the nth substance listed; conditions: 101.3 kPa, Liquid; for speed of sound: Frequency=3 MHz, Sing-around technique in a fixed-path interferometer; for mass density: Vibrating tube method
[2] = refractive index (Na D-line) (dimensionless); xn = mol fraction of the nth substance listed; conditions: 101.3 kPa, Liquid, Standard Abbe refractometry

COS(=O)(=O)[O-].Cn1cc[n+](C)c1 [1,3-dimethylimidazolium methylsulfate] + CCCCCO
Conditions | mass density, [1] [kg/m3] | refractive index, [2] | speed of sound, [1] [m/s]
298 K, x1 = 0.1 | 884 | 1.417 | 1311
298 K, x1 = 0.35 | 1041 | 1.439 | 1448
298 K, x1 = 0.54 | 1140 | 1.454 | 1552
298 K, x1 = 0.661 | 1195 | 1.463 | 1618
298 K, x1 = 0.79 | 1250 | 1.471 | 1672
298 K, x1 = 0.931 | 1304 | 1.479 | 1751
298 K, x1 = 1 | 1329 | 1.483 | 1811
303 K, x1 = 0.1 | 879 | 1.416 | 1295
303 K, x1 = 0.35 | 1035 | 1.438 | 1432
303 K, x1 = 0.54 | 1134 | 1.452 | 1536
303 K, x1 = 0.661 | 1189 | 1.461 | 1603
303 K, x1 = 0.79 | 1243 | 1.469 | 1659
303 K, x1 = 0.931 | 1298 | 1.477 | 1738
303 K, x1 = 1 | 1322 | 1.481 | 1799
308 K, x1 = 0.1 | 875 | 1.414 | 1278
308 K, x1 = 0.35 | 1031 | 1.436 | 1417
308 K, x1 = 0.54 | 1129 | 1.451 | 1521
308 K, x1 = 0.661 | 1185 | 1.459 | 1588
308 K, x1 = 0.79 | 1239 | 1.467 | 1645
308 K, x1 = 0.931 | 1294 | 1.476 | 1725
308 K, x1 = 1 | 1319 | 1.48 | 1787
313 K, x1 = 0.1 | 871 | 1.412 | 1261
313 K, x1 = 0.35 | 1026 | 1.433 | 1401
313 K, x1 = 0.54 | 1125 | 1.448 | 1506
313 K, x1 = 0.661 | 1181 | 1.456 | 1574
313 K, x1 = 0.79 | 1235 | 1.465 | 1631
313 K, x1 = 0.931 | 1290 | 1.474 | 1713
313 K, x1 = 1 | 1315 | 1.479 | 1775
